Assay results from patent US9000027B2, “Chk1 suppresses a caspase-2 apoptotic response to DNA damage that bypasses p53, bcl-2 and caspase-3” (Dana-Farber Cancer Institute, Inc., priority 2008, dated 2015).
“Also recorded” adds a separate entry of the source.

Experiments:
p53 mutant embryos = experiment: Live acridine orange (AO) assay of IR-induced cell death in inhibitor-treated p53 mutant embryos; assay type: in vivo, zebrafish
Text: Chk1 inhibitors hold considerable promise in cancer therapy, as they are expected to synergize with genotoxic agents to kill tumor cells lacking functional p53, without affecting normal cells (Kawabe, 2004; Zhou and Bartek, 2004). […] Gö6976 has not been tested in vivo in a vertebrate model system. We therefore evaluated it as well as specific Chk2 and ATM inhibitors in the zebrafish system. Drug toxicity was monitored by scoring the AO reactivity of inhibitor-treated, but non-irradiated, p53^+/+ embryos (left column in FIG. 8A). Unless otherwise indicated, the inhibitors were applied at 18 hpf (that is, immediately before IR) for a total of 6 hours.
Live zebrafish embryos were dechorionated in pronase (2.0 mg/mL in egg water) for 3 to 5 min and rinsed five times in egg water at 18 hpf. Embryos were then γ-irradiated (12.5 Gy) using a ^137Cs-irradiator (Gammacell 1000) at 18 hr post-fertilization (hpf). At 24 hpf, embryos were incubated in […] Acridine Orange (AO; Sigma A-6014) in egg water for 30 min at 28.5° C., followed by 3 quick rinses and three 10-min washes in egg water. 5-10 AO-treated embryos were anesthetized in Tricaine ([…]; 3-amino benzoic acid ethylester from Sigma, A-5040) and mounted laterally on a glass slide in warm 0.5% agarose in egg water by streaking a thin layer of the warm agarose across the surface of the slide, and gently pulling the embryos across the agar with a transfer pipette. Lateral images of each zebrafish were acquired on a Zeiss Axioplan2 fluorescence microscope (5× lens), using OpenLab software and a Hammamatsu C4742-95 digital camera. All images were then converted to 8-bit grayscale in NIH ImageJ using the Image>Type>8-bit command. Next, we cropped the images using the Polyonal Selection tool and the Image>Crop functions to include only the trunk of the animal from the head until the beginning of the yolk tube (MO screen; FIG. 1B) or along the entire spinal cord (epistasis analyses; FIGS. 6A & 6D). The area outside of the selected region of interest was cleared using the Edit>Clear Outside command to create a distinct boundary around the area of interest (this is important as it allows the area of interest to be precisely selected after applying the threshold). Next, we split the acquired images into features of interest and background using the Image>Adjust>Threshold function in NIH ImageJ. We then set the maximum threshold of each image to 255 (the lower slide bar in the Threshold window), and adjusted the minimum threshold to the optimized threshold (see below). The threshold was applied using the Black & White display option, with the following Lut options applied; Thresholded pixels to foreground color; Remaining pixels to background color and Black foreground, white background. […] Next, we re-selected the region of interest on the thresholded image, following the bounded image carefully, and analyzed the pixels of the image using the Analyze>Analyze Particles function. The Minimum Size was set to 1px, the Maximum Size was set to the maximum value of 999999 and the Masks option was selected under the Show pull-down menu. The following extended options were also selected: Display Results; Clear Results; Summarize, Size Distribution and Record Starts. If selected by default, the Exclude on Edges option was deselected. The Area Fraction for each image selection was taken from the Summary window, which is the percentage of pixels in the selection that were black. To ensure valid comparisons of the AO labeling results across all experiments, we quantitatively determined a baseline Area Fraction across a large set of simultaneously irradiated and processed p53^+/+ embryos. […] This analysis yielded a mean value for the total labeled surface area of ˜20% (see FIG. 1B, light gray bar). We included at least 6 p53^+/+ non-injected control embryos in all subsequent AO-labeling experiments. […]

myeloid cells = experiment: Quantification of myeloid cells (mpo/l-plastin in situ hybridization) in irradiated embryos; assay type: in vivo, zebrafish; conditions: p53^e7/e7 background, IR, 28 hpf
Text: FIG. 2 provides a series of fluorescent images, western blot images, in situ hybridization images and two sets of graphs as outlined below. chk1 knockdown radiosensitizes p53 mutants but is otherwise compatible with normal zebrafish development. (A) Fluorescence images of representative embryos of indicated genotypes+/−chk1 MO after 0- or 12.5-Gy IR. 5 bpmmMO, 5-base-pair mismatch MO. (B) Quantified AO responses of indicated genotypes with or without IR (12.5 Gy) and chk1 MO. Gray bars, p53^+/+ background; black bars, p53^e7/e7 background. AO staining was quantified in ≧8 embryos per condition, with ≧1000 embryos scored. All data are reported as means+/−SEM. ***P<0.0001 (two-tailed Student's t-test). […] (E) Fluorescence images of representative embryos of indicated genotypes. p53^e6 is the N168K mutation, corresponding to human residue 200. p53MO, MO against the p53 5′UTR. (F) Fluorescence images of live transgenic embryos injected with the indicated MOs at the 1-cell stage and expressing EGFP in the notochord (top, embryos photographed at 24 hpf) or in myeloid progenitors (bottom, embryos photographed at 16.5 hpf). […] (G) Quantification of myeloid cells in 28 hpf embryos generated as indicated (x-axis) and processed as in panel H. Gray bars, p53^+/+ background; black bars, p53^e7/e7 background. mpo/lplastin staining was quantified in 15 embryos per condition. […]

| Compound | Gö6976-treated p53 mutants showing a marked IR-response recovery (p53 mutant embryos; 1 μM, 12.5 Gy IR at 18 hpf, n=210) [%] | radiosensitization of p53 mutants (IR-induced AO labeling) (p53 mutant embryos; 12.5 Gy at 18 hpf, Gö6976 1 μM, KU55933 10 μM, Chk2 Inhibitor II 10 μM, 6 hr) | exposure immediately after IR sufficient to phenocopy chk1 MO knockdown (p53 mutant embryos; p53 mutant embryos) [h] | AO staining response versus p53 mutant response (p53 mutant embryos; p53 mutants treated with Gö6976 for 6 hours, IR) [fold] | average reduction in myeloid cell numbers (myeloid cells) [fold] |
| --- | --- | --- | --- | --- | --- |
| Cn1c2ccccc2c2c3c(c4c5ccccc5n(CCC#N)c4c21)CNC3=O [Gö6976] | 95 | restored a complete response to IR; also recorded: restored IR-induced cell death with complete penetrance | 1.5 | ~500 | – |
| chk1 MO: morpholino against zebrafish chk1 atg/5'UTR, aggcacagccattatgcaatcttcg (SEQ ID NO: 11) (AGGCACAGCCATTATGCAATCTTCG; all phosphorodiamidate morpholino (PMO)) | – | – | – | – | 2 |
